US12195427B2, “MASP-2 inhibitors and methods of use” (priority 2018, dated 2025)
Counter-ions that a name gives are not always drawn.

Molecular target: MASP-2 CCP2-SP (Homo sapiens (Human), UniProt O00187)
Assay: MASP-2 co-crystallization, X-ray crystallography and structure analysis (H-bonds, van der Waals contacts);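 for Ligand-pharmacophore element distance, pharmacophore element C2: distance from averaged pharmacophore element to bound ligand; missing value means element absent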;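 for Ligand-pharmacophore element distance, pharmacophore element C3: distance from averaged pharmacophore element to bound ligand; missing value means element absent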;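 for Ligand-pharmacophore element distance, pharmacophore element C4: distance from averaged pharmacophore element to bound ligand; missing value means element absent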;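 for Ligand-pharmacophore element distance, pharmacophore element C5: distance from averaged pharmacophore element to bound ligand; missing value means element absent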
Design: van der Waals contact distance, MASP-2 HIS 483 atom CD2 / van der Waals contact distance, MASP-2 HIS 483 atom NE2 / van der Waals contact distance, SER 654 C to compound atom / van der Waals contact distance, SER 654 O to compound atom / van der Waals contact distance, TRP 655 C to compound atom / van der Waals contact distance, MASP-2 GLY 528 atom CA / van der Waals contact distance TRP 655 atom CZ3 / van der Waals contact distance TRP 655 atom N / van der Waals contact distance TRP 655 atom CE3 / van der Waals contact distance GLY 656 atom C / van der Waals contact distance GLY 656 atom CA / van der Waals contact distance GLY 656 atom O / van der Waals contact distance, MASP-2 TYR 607 atom CD1 / van der Waals contact distance, MASP-2 PRO 606 atom O / d(C3,CA1) / d(CA1,N1)2 / d(H4,O1) / d(H4,O2) / d(O1,O2) / d(CA1,O2) / d(CA6,O1) / d(CA6,O2) / d(CA1,C5) / d(O2,H3) / d(N2,C2) / d(CA5,N2) / d(N2,C4) / d(N2,C6) / d(N2,CA3) / d(N2,O3) / d(O4,H2): unit not given beside the values
Conditions: for H-bond distance to MASP-2 GLY 656 atom O: GLY 656 O; for H-bond distance to MASP-2 SER 628 atom O: SER 628 O; for H-bond distance to MASP-2 SER 654 atom O: SER 654 O; for H-bond distance to MASP-2 SER 657 atom O: SER 657 O; for van der Waals contact distance, MASP-2 HIS 483 atom CD2 / van der Waals contact distance, MASP-2 HIS 483 atom NE2: Table A2-1; for van der Waals contact distance, MASP-2 PHE 529 atom CD1 / van der Waals contact distance, MASP-2 PHE 529 atom CZ: Table A2-3; for van der Waals contact distance, VAL 653 CG1 to compound atom / van der Waals contact distance, SER 654 C to compound atom: Table A2-11; for van der Waals contact distance TRP 655 atom CE3: MASP-2 TRP 655 CE3, compound atom in line below; for van der Waals contact distance TRP 655 atom CZ3: MASP-2 TRP 655 CZ3; for H-bond distance to MASP-2 ASP 627 atom OD2: ASP 627 OD2; for H-bond distance to MASP-2 GLY 656 atom N: GLY 656 N; for van der Waals contact distance GLY 656 atom C: MASP-2 GLY 656 C
Procedure, shortened: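 Human MASP-2 CCP2-SP, untagged or 6His-tagged, was expressed in E. coli and crystallized. Crystals were soaked with inhibitor in crystallization solution, flash-cooled in liquid nitrogen, and diffracted with synchrotron X-rays (wavelength 1.0). Structures were solved by molecular replacement from 1Q3X and partially refined.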

[1] = Table A2-9, ARG 630, AA atoms CG, CZ
[2] = Table A5-1 pharmacophore: distance between elements, S2/S1 region
[3] = Table A5-2 pharmacophore distance, S3/S4 region
[4] = Table A7-1, between pharmacophore elements of the bound compound
[5] = Table A7-2, between pharmacophore elements of the bound compound

MASP-2 CCP2-SP, sequence (O00187 445-686): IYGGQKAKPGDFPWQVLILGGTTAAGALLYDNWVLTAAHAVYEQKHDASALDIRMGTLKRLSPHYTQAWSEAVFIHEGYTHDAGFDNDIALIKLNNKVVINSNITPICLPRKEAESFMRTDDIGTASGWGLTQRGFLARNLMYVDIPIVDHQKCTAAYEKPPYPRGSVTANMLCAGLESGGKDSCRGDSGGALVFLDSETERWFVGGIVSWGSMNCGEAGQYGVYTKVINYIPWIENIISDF
MASP-2 CCP2-SP, sequence (O00187 364-432 partner): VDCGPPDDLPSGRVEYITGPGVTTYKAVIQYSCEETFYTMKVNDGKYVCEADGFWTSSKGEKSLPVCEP

Structure (SMILES): Cc1cccc([C@H]2CN[C@@H](C(=O)N[C@@H](C)C(=O)NCc3ccc(N)nc3C)C2)c1 [compound 1257, (2R,4S)—N—((S)-1-(((6-Amino-2-methylpyridin-3-yl)methyl)amino)-1-oxopropan-2-yl)-4-(m-tolyl)pyrrolidine-2-carboxamide Dihydrochloride]
- H-bond distance to MASP-2 GLY 656 atom O (Table A1 (H-Bonds)): 2.82
- H-bond distance to MASP-2 SER 628 atom O (Table A1 (H-Bonds)): 3.12
- H-bond distance to MASP-2 SER 654 atom O (Table A1 (H-Bonds)): 3.02
- H-bond distance to MASP-2 SER 657 atom O (Table A1 (H-Bonds)): 2.86
- van der Waals contact distance, MASP-2 HIS 483 atom CD2: 3.7
- van der Waals contact distance, MASP-2 HIS 483 atom NE2: 3.72
- van der Waals contact distance, MASP-2 PHE 529 atom CD1: 3.89
- van der Waals contact distance, MASP-2 PRO 606 atom O (Table A2-4): 3.38
- van der Waals contact distance, MASP-2 amino acid atom to compound atom (Table A2-5: TYR 607 (CE1, CE2, OH), PRO 608 (CD, CG), SER 611 (CA)): 3.8
- van der Waals contact distance, MASP-2 amino acid atom to compound atom [1]: 3.53
- van der Waals contact distance, VAL 653 CG1 to compound atom: 3.36
- van der Waals contact distance, SER 654 O to compound atom (Table A2-12): 3.73
- van der Waals contact distance, TRP 655 CA to compound atom (Table A2-12): 3.57
- van der Waals contact distance TRP 655 atom CE3 (Table A2-13): 3.87
- van der Waals contact distance TRP 655 atom CZ3 (Table A2-13): 3.77
- van der Waals contact distance, MASP-2 amino acid atom to compound atom (Table A2 section before Table A2-8): 3.86
- Ligand-pharmacophore element distance, pharmacophore element C2 (Table A4-1, element C2): 0
- Ligand-pharmacophore element distance, pharmacophore element C3 (Table A4-1, element C3): 0.1
- Ligand-pharmacophore element distance, pharmacophore element C4 (Table A4-1, element C4): 0
- Ligand-pharmacophore element distance, pharmacophore element C5 (Table A4-1, element C5): 0
- Ligand-pharmacophore element distance, pharmacophore element C6 (Table A4-1, element C6): 0.53
- Ligand-pharmacophore element distance, pharmacophore element C7 (Table A4-1, element C7): 0
- Ligand-pharmacophore element distance, pharmacophore element CA1 (Table A4-1, element CA1): 0.65
- Ligand-pharmacophore element distance, pharmacophore element CA2 (Table A4-1, element CA2): 0
- Ligand-pharmacophore element distance, pharmacophore element CA3 (Table A4-1, element CA3): 0
- Ligand-pharmacophore element distance, pharmacophore element CA4 (Table A4-1, element CA4): 0
- Ligand-pharmacophore element distance, pharmacophore element CA5 (Table A4-1, element CA5): 1.2
- Ligand-pharmacophore element distance, pharmacophore element CA6 (Table A4-1, element CA6): 0
- d(C3,CA1) [2]: 2.87
- d(CA1,N1)2 [2]: 1.35
- d(CA1,O1) [2]: 4.45
- d(CA1,O2) [2]: 4.03
- d(H4,O1) [2]: 4.43
- d(H4,O2) [2]: 3.84
- d(O1,O2) [2]: 3.61
- d(CA5,N2) [3]: 5.09
- d(N2,C6) [3]: 6.64
- d(O2,H3) [3]: 2.18
- d(O2,N2) [3]: 2.71
- a(C3, CA1, O1) (Table A6-1 pharmacophore angle): 150.46
- a(CA1, O1, O2) (Table A6-1 pharmacophore angle): 109.00
- a(O1, O2, H4) (Table A6-1 pharmacophore angle): 128.83
- a(N1, CA1, O1) b) (Table A6-1 pharmacophore angle, Methyl-amino-pyridine compounds): 174.64
- a(O1, O2, H3) (Table A6-2 pharmacophore angle): 132.63
- a(O1, O2, N2) (Table A6-2 pharmacophore angle): 141.45
- a(O2, N2, C6) (Table A6-2 pharmacophore angle): 105.30
- Pharmacophore torsion angle a(C3, CA1, O1, H4) [4]: 30.77
- Pharmacophore torsion angle a(H4, O1, O2, H3) [4]: 108.60
- Pharmacophore torsion angle a(H4, O1, O2, N2) [4]: 132.94
- Pharmacophore torsion angle a(N1, CA1, O1, H4) [4]: 11.94
- Pharmacophore torsion angle a(O1, H4, O2, CA1) [4]: −83.51
- Pharmacophore torsion angle a(O1, O2, N2, C6) [5]: 146.13
- Pharmacophore torsion angle a(O1, O2, N2, CA5) [5]: 134.25

Structure (SMILES): Cc1nc(N)ccc1CNC(=O)[C@H](C)NC(=O)[C@H]1C[C@@H](c2cccc3ccccc23)CCN1 [compound 1297, (2R,4S)—N—((S)-1-(((6-Amino-2-methylpyridin-3-yl)methyl)amino)-1-oxopropan-2-yl)-4-(naphthalen-1-yl)piperidine-2-carboxamide]
- H-bond distance to MASP-2 ASP 627 atom OD2 (Table A1 (H-Bonds)): 3.13
- H-bond distance to MASP-2 GLY 656 atom N (Table A1 (H-Bonds)): 3.33
- H-bond distance to MASP-2 GLY 656 atom O (Table A1 (H-Bonds)): 2.67
- H-bond distance to MASP-2 SER 628 atom O (Table A1 (H-Bonds)): 2.96
- H-bond distance to MASP-2 SER 654 atom O (Table A1 (H-Bonds)): 2.88
- H-bond distance to MASP-2 SER 657 atom O (Table A1 (H-Bonds)): 3.06
- van der Waals contact distance, MASP-2 HIS 483 atom CD2: 3.74
- van der Waals contact distance, MASP-2 HIS 483 atom NE2: 3.84
- van der Waals contact distance, MASP-2 GLY 528 atom CA (Table A2-2): 3.76
- van der Waals contact distance, MASP-2 TYR 607 atom CD1 (Table A2-4): 3.81
- van der Waals contact distance, MASP-2 amino acid atom to compound atom [1]: 3.47
- van der Waals contact distance, VAL 653 CG1 to compound atom: 3.22
- van der Waals contact distance, SER 654 O to compound atom (Table A2-12): 3.51
- van der Waals contact distance, TRP 655 C to compound atom (Table A2-12): 3.89
- van der Waals contact distance, TRP 655 CA to compound atom (Table A2-12): 3.49
- van der Waals contact distance TRP 655 atom CE3 (Table A2-13): 3.54

Structure (SMILES): C[C@H](NC(=O)[C@H]1C[C@H](Cc2ccccc2)CN1)C(=O)NCc1ccc(C(=N)N)cc1 [compound 1306, (2R,4S)-4-Benzyl-N—((S)-1-((4-carbamimidoylbenzyl)amino)-1-oxopropan-2-yl)pyrrolidine-2-carboxamide]
- H-bond distance to MASP-2 ASP 627 atom OD2 (Table A1 (H-Bonds)): 2.6
- H-bond distance to MASP-2 GLY 656 atom N (Table A1 (H-Bonds)): 3.05
- H-bond distance to MASP-2 GLY 656 atom O (Table A1 (H-Bonds)): 2.69
- H-bond distance to MASP-2 SER 628 atom O (Table A1 (H-Bonds)): 2.24
- H-bond distance to MASP-2 SER 657 atom O (Table A1 (H-Bonds)): 2.87
- van der Waals contact distance, MASP-2 HIS 483 atom CD2: 3.47
- van der Waals contact distance, MASP-2 HIS 483 atom NE2: 3.32
- van der Waals contact distance, MASP-2 PHE 529 atom CZ: 3.63
- van der Waals contact distance, MASP-2 TYR 607 atom CD1 (Table A2-4): 3.85
- van der Waals contact distance, MASP-2 amino acid atom to compound atom (Table A2-9 second part, ARG 630, AA atoms N, NE, NH1): 3.76
- van der Waals contact distance GLY 656 atom C (Table A2-13): 3.54
- van der Waals contact distance GLY 656 atom CA (Table A2-13, MASP-2 GLY 656 CA): 3.61

Structure (SMILES): Cc1nc(N)ccc1CNC(=O)[C@H](C)NC(=O)[C@H]1C[C@H](Cc2cccc(Cl)c2)CN1 [compound 1328, (2R,4S)—N—((S)-1-(((6-amino-2-methylpyridin-3-yl)methyl)amino)-1-oxopropan-2-yl)-4-(3-chlorobenzyl)pyrrolidine-2-carboxamide]
- H-bond distance to MASP-2 GLY 656 atom N (Table A1 (H-Bonds)): 3.33
- H-bond distance to MASP-2 GLY 656 atom O (Table A1 (H-Bonds)): 2.82
- H-bond distance to MASP-2 SER 628 atom O (Table A1 (H-Bonds)): 3.06
- H-bond distance to MASP-2 SER 654 atom O (Table A1 (H-Bonds)): 2.67
- H-bond distance to MASP-2 SER 657 atom O (Table A1 (H-Bonds)): 2.44
- van der Waals contact distance, MASP-2 HIS 483 atom CD2: 3.79
- van der Waals contact distance, MASP-2 HIS 483 atom NE2: 3.73
- van der Waals contact distance, MASP-2 PHE 529 atom CD1: 3.78
- van der Waals contact distance, SER 654 C to compound atom: 3.62
- van der Waals contact distance, VAL 653 CG1 to compound atom: 3.23
- van der Waals contact distance TRP 655 atom CE3 (Table A2-13): 3.49
- van der Waals contact distance TRP 655 atom CZ3 (Table A2-13): 3.53

Structure (SMILES): CC(=O)Nc1ccc(CCN[C@H](CCc2ccccc2)C(=O)N[C@@H](C)C(=O)NCc2ccc(C(=N)N)cc2)cc1 [compound 1345, (R)-2-((4-acetamidophenethyl)amino)-N—((S)-1-((4-carbamimidoylbenzyl)amino)-1-oxopropan-2-yl)-4-phenylbutanamide]
- H-bond distance to MASP-2 ARG 630 atom NH1 (second bond) (Table A1 (H-Bonds), ARG 630 NH1): 2.37
- H-bond distance to MASP-2 GLN 665 atom OE1 (Table A1 (H-Bonds), GLN 665 OE1): 2.63
- H-bond distance to MASP-2 GLY 656 atom N (Table A1 (H-Bonds)): 3.05
- H-bond distance to MASP-2 GLY 656 atom O (Table A1 (H-Bonds)): 3.13
- H-bond distance to MASP-2 SER 628 atom O (Table A1 (H-Bonds)): 2.64
- H-bond distance to MASP-2 SER 654 atom O (Table A1 (H-Bonds)): 3.02
- H-bond distance to MASP-2 SER 657 atom O (Table A1 (H-Bonds)): 3.01
- van der Waals contact distance, MASP-2 HIS 483 atom CD2: 3.69
- van der Waals contact distance, MASP-2 HIS 483 atom NE2: 3.37
- van der Waals contact distance, MASP-2 PHE 529 atom CZ: 3.88
- van der Waals contact distance, MASP-2 amino acid atom to compound atom [1]: 3.52
- van der Waals contact distance, SER 654 C to compound atom: 3.84
- van der Waals contact distance, SER 654 O to compound atom (Table A2-12): 3.75
- van der Waals contact distance GLY 656 atom C (Table A2-13): 3.74
